Data set [1] relates to ATCC90018 Candida parapsilosis strain. Kind of data set: Anti-Candida in vitro assay, ATCC90018. Type of data set: cell-based. The following applies: Lodderomyces parapsilosis; Candida parapsilosis ATCC90018, mean of triplicate; read-out: MIC (IC80) ATCC90018. On the procedure:
(§1) Test fungal strains were obtained from the American Type Culture Collection (ATCC) or were clinical isolates from the Laboratory of Parasitology and Medical Mycology, Centre Hospitalier Universitaire (CHU) of Nantes. The strains were maintained on Sabouraud agar slants and were subcultured 24 h before used. The activity of the target compounds 8a–g and 11a–m was determined by the method previously described. Briefly, molecules were diluted in RPMI 1640 medium supplemented with 0.165 M morpholinopropanesulphonic acid (Sigma-Aldrich, Saint-Quentin Fallavier, France), 2% glucose, and antibiotics. Candida suspensions were prepared in RPMI 1640 medium (Sigma-Aldrich, Saint-Quentin Fallavier, France) adjusted to give a final concentration of 10^3 cells/mL, and a 96-well microplate (Nunc, D. Dutscher, Brumath, France) was seeded with 100 µL. Each concentration of molecules (100 µL) to be tested was added (in triplicate) and plates were incubated at 37 °C for 24 h. The cellular viability was evaluated on the Fluorolite 1000 (Dynatech, France) with an excitation at 550 nm and an emission at 590 nm after a 4 h incubation with 10 µL of Alamar Blue®. […] MIC was expressed as the mean of the triplicate values. KTC and FLC were used as standards.

The test system of data set [2] is CA98002 (Candida albicans). Kind of data set: Anti-Candida in vitro assay, CA98002. The following applies: Candida albicans CA98002, mean of triplicate; read-out: MIC (IC80) CA98002. Type of data set: cell-based. On the procedure: as §1
Data set [3] concerns CYP11B1. Also on record: method as in PMID 7663533. The following applies: cited from earlier work.
Data set [4] concerns CK98002 (Candida krusei). Description: Anti-Candida in vitro assay, CK98002. Type of data set: cell-based. The following applies: Pichia kudriavzevii; Candida krusei CK98002, mean of triplicate; read-out: MIC (IC80) CK98002. As to the method: as §1
Data set [5] deals with CA98005 (Candida albicans). Kind of data set: Anti-Candida in vitro assay, CA98005. The settings on record: Candida albicans CA98005, mean of triplicate; read-out: MIC (IC80) CA98005. The format is cell-based. As to the method: as §1
For data set [6], the system named is CK98003 (Candida krusei). Kind of data set: Anti-Candida in vitro assay, CK98003. The format is cell-based. The settings on record: Pichia kudriavzevii; Candida krusei CK98003, mean of triplicate; read-out: MIC (IC80) CK98003. On the procedure:
as §1

Data set [7] can be described thus: MRC5 toxicity assay. The format is cell-based, human. The following applies: human, MRC-5 cells, 96-h incubation, mean of triplicate, read-out: Cytotoxicity IC50 on MRC-5 cells. On the procedure: The cytotoxicity of compounds was studied with human fibroblast (MRC5). Cells were grown in RPMI 1640 medium (Sigma-Aldrich, Saint-Quentin Fallavier, France) supplemented with 10% fetal bovin serum (Sigma–Aldrich). Drugs were tested at three concentrations (100, 10, and 1 µM) in triplicate. After a 96-h incubation time, cytotoxicity was measured on the Fluorolite 1000 (Dynatech, Guyancourt, France) after a 4-h incubation time with Uptiblue® (Interchim, Montluçon, France). Inhibitory concentration 50 is a mean of triplicate values. A toxicity index was determined as follow: IC50 against MRC5/Geometric mean of the MICs against Candida spp..

Data set [8] concerns ATCC6258 Candida krusei strain. Description: Anti-Candida in vitro assay, ATCC6258. Type of data set: cell-based. The following applies: Pichia kudriavzevii; Candida krusei ATCC6258, mean of triplicate; read-out: MIC (IC80) ATCC6258. As to the method: as §1
Data set [9] relates to C. albicans CA98001. Kind of data set: Anti-Candida in vitro assay (Alamar Blue), C. albicans CA98001. The format is cell-based. The following applies: MIC = IC80, 24 h at 37 °C, mean of triplicate; for MIC: Candida albicans, CA98001, 24 h. On the procedure:
as §1

Data set [10] relates to CL98001 (Candida lusitaniae). Kind of data set: Anti-Candida in vitro assay, CL98001. Type of data set: cell-based. The following applies: Clavispora lusitaniae; Candida lusitaniae CL98001, mean of triplicate; read-out: MIC (IC80) CL98001. As to the method: as §1
Data set [11] relates to ATCC2091 Candida albicans strain. Description: Anti-Candida in vitro assay, ATCC2091. The settings on record: Candida albicans ATCC2091, mean of triplicate; read-out: MIC (IC80) ATCC2091. The format is cell-based. On the procedure: as §1
The test system of data set [12] is CYP11B2. Also on record: method as in PMID 21193036. The settings on record: another similar study; cited from earlier work.

Molecules are shown by their SMILES. ≈ marks a conversion by molar mass, not a printed value. Like-named read-outs stand apart in the source and are kept apart here.

For the molecule `OC(Cn1cncn1)(Cn1cncn1)c1ccc(F)cc1F` [FLC, fluconazole, reference compound], the MIC in data set [1] stood at 0.6 µg/mL (≈ 1.96 µM); in [2] it was 1 µg/mL (≈ 3.27 µM); in data set [4] it was 2 µg/mL (≈ 6.53 µM); in [5] it was 0.57 µg/mL (≈ 1.86 µM); in [6], 6.7 µg/mL (≈ 21.9 µM); in [8], 7.5 µg/mL (≈ 24.5 µM). The MIC in data set [9] came out at 0.02 µg/mL (≈ 0.0653 µM); in data set [10], 0.55 µg/mL (≈ 1.8 µM); in data set [11], 0.07 µg/mL (≈ 0.229 µM). For the same molecule, the “CYP11B1 inhibition” value in data set [3] is on record as “minor inhibitor”. Besides, in data set [7] (MRC-5 human fetal lung fibroblast cells), the IC50 at 96 h was above 100 µM. Also, the “MIC (= IC80) C. albicans CA98001” value in data set [9] was 0.02 µg/mL (≈ 0.0653 µM).

As to `CC(=O)N1CCN(c2ccc(OCC3COC(Cn4ccnc4)(c4ccc(Cl)cc4Cl)O3)cc2)CC1` (stereo not drawn) [KTC, ketoconazole, reference compound], the MIC was determined as 0.064 µg/mL (≈ 0.12 µM) in data set [1]; 0.009 µg/mL (≈ 0.0169 µM) in data set [2]; 0.37 µg/mL (≈ 0.696 µM) in data set [4]; 0.006 µg/mL (≈ 0.0113 µM) in data set [5]; 0.43 µg/mL (≈ 0.809 µM) in [6]; 0.079 µg/mL (≈ 0.149 µM) in [8]. Moreover, the minimal inhibitory concentration (MIC) in [9] is 0.005 µg/mL (≈ 0.00941 µM); in data set [10] it was 0.007 µg/mL (≈ 0.0132 µM); in data set [11], 0.008 µg/mL (≈ 0.0151 µM). The CYP11B2 inhibition in data set [12] was 100%. Moreover, the “CYP11B1 inhibition” value in data set [3] is on record as “strong inhibitor”. Besides, the concentration for half-maximal inhibition (IC50) at 96 h in data set [7] came out at 69.1 µM.
